Laboratory results: US11331327B2, “Antibacterial use of halogenated salicylanilides” (UNION therapeutics A/S, priority 2014, dated 2022)
Values after ≈ are worked out from the molar mass of the structure shown. Where two headings read alike, the source gives them in different places.

Tested on: S. aureus clinical isolates and S. aureus ATCC 29213
Experiment: MIC assay according to CLSI criteria, Example 2, S. aureus strains
Type: cell-based, Staphylococcus aureus
Conditions: Staphylococcus aureus, read-out: MIC
Procedure: Strains were conserved in Luria Bertani (LB) Broth (S. aureus) or Brain Heart Infusion (BHI) (S. pyogenes) supplemented with glycerol 15% (v/v) at −80° C., and reactivated by isolation on LB (S. aureus) or BHI (S. pyogenes) agar plates. Strains were cultivated in Mueller Hinton (MH) Broth-cation adjusted (S. aureus) or BHI (S. pyogenes). All strains were cultivated aerobically (microaerobically for S. pyogenes strains) at 37° C.
Bacterial cultures were stopped in their exponential growth phase and plates were inoculated with the approximate concentration of 5×10^5 cells per well. Plates were incubated at 37° C. for 18 hours (S. aureus) or 24 hours (S. pyogenes).

Work on O=C(Nc1ccc([N+](=O)[O-])cc1Cl)c1cc(Cl)ccc1O [Niclosamide, 5-chloro-N-(2-chloro-4-nitrophenyl)-2-hydroxybenz-amide] yielded an MIC (ATCC 29213 / MRSA, strain MRSA 12) of 0.5 µg/mL (≈ 1.53 µM), an MIC (ATCC 29213 / MRSA, strain MRSA 13) of 0.25 µg/mL (≈ 0.764 µM) and an MIC (ATCC 29213 / MRSA, strain MRSA 14) of 0.25 µg/mL (≈ 0.764 µM). For the same compound, the MIC (ATCC 29213 / MRSA, strain MRSA 15) was 0.25 µg/mL (≈ 0.764 µM), the MIC (ATCC 29213 / MRSA, strain MRSA 16) was 0.25 µg/mL (≈ 0.764 µM) and the MIC (ATCC 29213 / MRSA, strain MRSA 17) was 0.25 µg/mL (≈ 0.764 µM). For the same compound, the MIC (ATCC 29213 / MRSA, strain MRSA 18) was 0.25 µg/mL (≈ 0.764 µM), the MIC (ATCC 29213 / MRSA, strain MRSA 19) was 0.25 µg/mL (≈ 0.764 µM) and the MIC (ATCC 29213 / MRSA, strain MRSA 20) was 0.25 µg/mL (≈ 0.764 µM). For the same compound, the MIC (ATCC 29213 / MRSA, strain MRSA 21) was 0.25 µg/mL (≈ 0.764 µM), the MIC (ATCC 29213 / MRSA, strain MRSA 22) was 0.25 µg/mL (≈ 0.764 µM) and the MIC (ATCC 29213 / MRSA, strain MRSA 23) was 0.25 µg/mL (≈ 0.764 µM). It also gave an MIC (ATCC 29213 / MRSA, strain MRSA 24) of 0.25 µg/mL (≈ 0.764 µM), an MIC (ATCC 29213 / MRSA, strain MRSA 25) of 0.25 µg/mL (≈ 0.764 µM) and an MIC (ATCC 29213 / MRSA, strain MRSA 26) of 0.5 µg/mL (≈ 1.53 µM). For the same compound, the MIC (ATCC 29213 / MRSA, strain MRSA 27) was 0.5 µg/mL (≈ 1.53 µM), the MIC (ATCC 29213 / MRSA, strain MRSA 27b) was 0.25 µg/mL (≈ 0.764 µM) and the MIC (ATCC 29213 / MRSA, strain MRSA 28) was 0.25 µg/mL (≈ 0.764 µM). For the same compound, the MIC (ATCC 29213 / MRSA, strain MRSA 29) was 0.5 µg/mL (≈ 1.53 µM), the MIC (ATCC 29213 / MRSA, strain MRSA 30) was 0.25 µg/mL (≈ 0.764 µM) and the MIC (ATCC 29213 / MRSA, strain MRSA 31) was 0.25 µg/mL (≈ 0.764 µM). For the same compound, the MIC (ATCC 29213 / MRSA, strain MRSA 32) was 0.25 µg/mL (≈ 0.764 µM), the MIC (ATCC 29213 / MRSA, strain MRSA 33) was 0.25 µg/mL (≈ 0.764 µM) and the MIC (ATCC 29213 / MRSA, strain MRSA 34) was 0.25 µg/mL (≈ 0.764 µM). The MIC (ATCC 29213 / MRSA, strain MRSA 35) was 0.25 µg/mL (≈ 0.764 µM), the MIC (ATCC 29213 / MRSA, strain MRSA 36) was 0.25 µg/mL (≈ 0.764 µM) and the MIC (ATCC 29213 / MRSA, strain MRSA 37) was 0.25 µg/mL (≈ 0.764 µM). For the same compound, the MIC (ATCC 29213 / MRSA, strain MRSA 38) was 0.25 µg/mL (≈ 0.764 µM), the MIC (ATCC 29213 / MRSA, strain MRSA 39) was 0.25 µg/mL (≈ 0.764 µM) and the MIC (ATCC 29213 / MRSA, strain MRSA 40) was 0.25 µg/mL (≈ 0.764 µM). The MIC (ATCC 29213 / MRSA, strain MRSA 41) was 0.25 µg/mL (≈ 0.764 µM), the MIC (ATCC 29213 / MRSA, strain MRSA 42) was 0.25 µg/mL (≈ 0.764 µM) and the MIC (ATCC 29213 / MRSA, strain MRSA 43) was 0.25 µg/mL (≈ 0.764 µM). It also gave an MIC (ATCC 29213 / MRSA, strain MRSA 44) of 0.25 µg/mL (≈ 0.764 µM), an MIC (ATCC 29213 / MRSA, strain MRSA 45) of 0.25 µg/mL (≈ 0.764 µM) and an MIC (ATCC 29213 / MRSA, strain MRSA 46) of 0.25 µg/mL (≈ 0.764 µM). The MIC (ATCC 29213 / MRSA, strain MRSA 47) was 0.25 µg/mL (≈ 0.764 µM), the MIC (ATCC 29213 / MRSA, strain MRSA 48) was 0.25 µg/mL (≈ 0.764 µM) and the MIC (ATCC 29213 / MRSA, strain MRSA 49) was 0.25 µg/mL (≈ 0.764 µM). For the same compound, the MIC (ATCC 29213 / MRSA, strain MRSA 50) was 0.25 µg/mL (≈ 0.764 µM), the MIC (ATCC 29213 / MRSA, strain MRSA 51) was 0.125 µg/mL (≈ 0.382 µM) and the MIC (ATCC 29213 / MRSA, strain MRSA 52) was 0.25 µg/mL (≈ 0.764 µM). The MIC (ATCC 29213 / MRSA, strain MRSA 53) was 0.25 µg/mL (≈ 0.764 µM), the MIC (ATCC 29213 / MRSA, strain MRSA 54) was 0.25 µg/mL (≈ 0.764 µM) and the MIC (ATCC 29213 / MRSA, strain MRSA 55) was 0.25 µg/mL (≈ 0.764 µM). For the same compound, the MIC (ATCC 29213 / MRSA, strain MRSA 56) was 0.25 µg/mL (≈ 0.764 µM), the MIC (ATCC 29213 / MRSA, strain MRSA 57) was 0.25 µg/mL (≈ 0.764 µM) and the MIC (ATCC 29213 / MRSA, strain MRSA 58) was 0.25 µg/mL (≈ 0.764 µM). It also gave an MIC (ATCC 29213 / MRSA, strain MRSA 59) of 0.25 µg/mL (≈ 0.764 µM), an MIC (ATCC 29213 / MRSA, strain MRSA 60) of 0.25 µg/mL (≈ 0.764 µM) and an MIC (ATCC 29213 / MRSA, strain MRSA 61) of 0.25 µg/mL (≈ 0.764 µM). The MIC (ATCC 29213 / MRSA, strain MRSA 62) was 0.25 µg/mL (≈ 0.764 µM), the MIC (ATCC 29213 / MRSA, strain MRSA 63) was 0.25 µg/mL (≈ 0.764 µM) and the MIC (ATCC 29213 / MRSA, strain MRSA 64) was 0.25 µg/mL (≈ 0.764 µM). The MIC (ATCC 29213 / MRSA, strain MRSA 65) was 0.25 µg/mL (≈ 0.764 µM), the MIC (ATCC 29213 / MRSA, strain MRSA 66) was 0.25 µg/mL (≈ 0.764 µM) and the MIC (ATCC 29213 / MRSA, strain MRSA 67) was 0.25 µg/mL (≈ 0.764 µM). For the same compound, the MIC (ATCC 29213 / MRSA, strain MRSA 68) was 0.25 µg/mL (≈ 0.764 µM), the MIC (ATCC 29213 / MRSA, strain MRSA 69) was 0.25 µg/mL (≈ 0.764 µM) and the MIC (ATCC 29213 / MRSA, strain MRSA 70) was 0.125 µg/mL (≈ 0.382 µM). For the same compound, the MIC (ATCC 29213 / MRSA, strain MRSA 71) was 0.25 µg/mL (≈ 0.764 µM), the MIC (ATCC 29213 / MRSA, strain MRSA 72) was 0.25 µg/mL (≈ 0.764 µM) and the MIC (ATCC 29213 / MRSA, strain MRSA 73) was 0.5 µg/mL (≈ 1.53 µM). The MIC (ATCC 29213 / MRSA, strain MRSA 74) was 0.25 µg/mL (≈ 0.764 µM), the MIC (ATCC 29213 / MRSA, strain MRSA 75) was 0.5 µg/mL (≈ 1.53 µM) and the MIC (ATCC 29213 / MRSA, strain MRSA 76) was 0.25 µg/mL (≈ 0.764 µM). The MIC (ATCC 29213 / MRSA, strain MRSA 77) was 0.25 µg/mL (≈ 0.764 µM), the MIC (ATCC 29213 / MRSA, strain MRSA 78) was 0.5 µg/mL (≈ 1.53 µM) and the MIC (ATCC 29213 / MRSA, strain MRSA 79) was 0.25 µg/mL (≈ 0.764 µM). The MIC (ATCC 29213 / MRSA, strain MRSA 80) was 0.5 µg/mL (≈ 1.53 µM), the MIC (ATCC 29213 / MRSA, strain MRSA 81) was 0.5 µg/mL (≈ 1.53 µM) and the MIC (ATCC 29213 / MRSA, strain MRSA 82) was 0.25 µg/mL (≈ 0.764 µM). For the same compound, the MIC (ATCC 29213 / MRSA, strain MRSA 83) was 0.5 µg/mL (≈ 1.53 µM), the MIC (ATCC 29213 / MRSA, strain MRSA 84) was 0.25 µg/mL (≈ 0.764 µM) and the MIC (ATCC 29213 / MRSA, strain MRSA 85) was 0.5 µg/mL (≈ 1.53 µM). It also gave an MIC (ATCC 29213 / MRSA, strain MRSA 86) of 0.25 µg/mL (≈ 0.764 µM), an MIC (ATCC 29213 / MRSA, strain MRSA 87) of 0.25 µg/mL (≈ 0.764 µM) and an MIC (ATCC 29213 / MRSA, strain MRSA 88) of 0.25 µg/mL (≈ 0.764 µM). For the same compound, the MIC (ATCC 29213 / MRSA, strain MRSA 89) was 0.5 µg/mL (≈ 1.53 µM), the MIC (ATCC 29213 / MRSA, strain MRSA 90) was 0.5 µg/mL (≈ 1.53 µM) and the MIC (ATCC 29213 / MRSA, strain MRSA 91) was 0.25 µg/mL (≈ 0.764 µM). It also gave an MIC (ATCC 29213 / MRSA, strain MRSA 92) of 0.25 µg/mL (≈ 0.764 µM), an MIC (ATCC 29213 / MRSA, strain MRSA 93) of 0.25 µg/mL (≈ 0.764 µM) and an MIC (ATCC 29213 / MRSA, strain MRSA 94) of 0.25 µg/mL (≈ 0.764 µM). The MIC (ATCC 29213 / MRSA, strain MRSA 95) was 0.25 µg/mL (≈ 0.764 µM), the MIC (ATCC 29213 / MRSA, strain MRSA 96) was 0.25 µg/mL (≈ 0.764 µM) and the MIC (ATCC 29213 / MRSA, strain MRSA 97) was 0.25 µg/mL (≈ 0.764 µM). For the same compound, the MIC (ATCC 29213 / MRSA, strain MRSA 98) was 0.5 µg/mL (≈ 1.53 µM), the MIC (ATCC 29213 / MRSA, strain MRSA 99) was 0.25 µg/mL (≈ 0.764 µM) and the MIC (ATCC 29213 / MRSA, strain MRSA 100) was 0.25 µg/mL (≈ 0.764 µM). For the same compound, the MIC (ATCC 29213 / MRSA, strain MRSA 101) was 0.5 µg/mL (≈ 1.53 µM), the MIC (ATCC 29213 / MRSA, strain MRSA 102) was 0.25 µg/mL (≈ 0.764 µM) and the MIC (ATCC 29213 / MRSA, strain MRSA 103) was 0.25 µg/mL (≈ 0.764 µM). For the same compound, the MIC (ATCC 29213 / MRSA, strain MRSA 104) was 0.5 µg/mL (≈ 1.53 µM), the MIC (ATCC 29213 / MRSA, strain MRSA 105) was 0.25 µg/mL (≈ 0.764 µM) and the MIC (ATCC 29213 / MRSA, strain MRSA 106) was 0.25 µg/mL (≈ 0.764 µM). The MIC (ATCC 29213 / MRSA, strain MRSA 107) was 0.25 µg/mL (≈ 0.764 µM), the MIC (ATCC 29213 / MRSA, strain MRSA 108) was 0.25 µg/mL (≈ 0.764 µM) and the MIC (ATCC 29213 / MRSA, strain MRSA 109) was 0.25 µg/mL (≈ 0.764 µM). It also gave an MIC (ATCC 29213 / MRSA, strain MRSA 110) of 0.25 µg/mL (≈ 0.764 µM), an MIC (ATCC 29213 / MRSA, strain MRSA 111) of 0.5 µg/mL (≈ 1.53 µM) and an MIC (ATCC 29213 / MRSA, strain MRSA 112) of 0.25 µg/mL (≈ 0.764 µM). The MIC (ATCC 29213 / MRSA, strain MRSA 113) was 0.25 µg/mL (≈ 0.764 µM), the MIC (ATCC 29213 / MSSA, strain MSSA 01) was 0.5 µg/mL (≈ 1.53 µM) and the MIC (ATCC 29213 / MSSA, strain MSSA 02) was 0.25 µg/mL (≈ 0.764 µM). For the same compound, the MIC (ATCC 29213 / NEWMAN, strain Newman) was 0.25 µg/mL (≈ 0.764 µM).
